Assay results as given in ChEMBL document CHEMBL1201862, “PubChem BioAssay data set” (2004).
Active and inactive are the calls of the source.

How the values were obtained:
[1] = biological target: Cytochrome P450 2C9 (Homo sapiens, UniProt P11712)
[2] = biological target: Cytochrome P450 2C19 (Homo sapiens, UniProt P33261); experiment: Cytochrome panel assay with activity outcomes. Panel member name: p450-cyp2c19 Compounds with AC50 equal or less than 10 uM are considered active; type: functional; conditions: read-out: AC50
Chain of Cytochrome P450 2C19 (P33261 whole entry): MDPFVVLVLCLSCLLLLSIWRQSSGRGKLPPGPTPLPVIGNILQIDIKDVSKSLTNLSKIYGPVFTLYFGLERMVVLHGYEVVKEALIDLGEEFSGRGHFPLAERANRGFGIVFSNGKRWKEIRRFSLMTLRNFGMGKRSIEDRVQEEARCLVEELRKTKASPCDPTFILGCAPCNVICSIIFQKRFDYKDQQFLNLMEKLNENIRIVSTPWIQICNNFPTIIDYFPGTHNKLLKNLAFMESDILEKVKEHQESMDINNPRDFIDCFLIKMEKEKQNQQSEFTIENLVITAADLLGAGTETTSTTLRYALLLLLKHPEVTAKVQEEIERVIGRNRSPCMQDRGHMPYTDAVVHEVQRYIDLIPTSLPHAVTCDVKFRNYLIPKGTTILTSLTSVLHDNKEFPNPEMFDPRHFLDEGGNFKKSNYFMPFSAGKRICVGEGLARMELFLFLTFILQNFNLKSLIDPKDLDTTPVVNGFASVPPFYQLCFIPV

[3] = biological target: T1, Short transient receptor potential channel 4 (Mus musculus, UniProt Q9QUQ5); experiment: mouse TRPC4 channel activators, dose response, cell-based, HEK293 TRPC4/mu-opioid, Fluo-4 calcium (AID 434937); type: functional
T1 sequence (Q9QUQ5 whole entry): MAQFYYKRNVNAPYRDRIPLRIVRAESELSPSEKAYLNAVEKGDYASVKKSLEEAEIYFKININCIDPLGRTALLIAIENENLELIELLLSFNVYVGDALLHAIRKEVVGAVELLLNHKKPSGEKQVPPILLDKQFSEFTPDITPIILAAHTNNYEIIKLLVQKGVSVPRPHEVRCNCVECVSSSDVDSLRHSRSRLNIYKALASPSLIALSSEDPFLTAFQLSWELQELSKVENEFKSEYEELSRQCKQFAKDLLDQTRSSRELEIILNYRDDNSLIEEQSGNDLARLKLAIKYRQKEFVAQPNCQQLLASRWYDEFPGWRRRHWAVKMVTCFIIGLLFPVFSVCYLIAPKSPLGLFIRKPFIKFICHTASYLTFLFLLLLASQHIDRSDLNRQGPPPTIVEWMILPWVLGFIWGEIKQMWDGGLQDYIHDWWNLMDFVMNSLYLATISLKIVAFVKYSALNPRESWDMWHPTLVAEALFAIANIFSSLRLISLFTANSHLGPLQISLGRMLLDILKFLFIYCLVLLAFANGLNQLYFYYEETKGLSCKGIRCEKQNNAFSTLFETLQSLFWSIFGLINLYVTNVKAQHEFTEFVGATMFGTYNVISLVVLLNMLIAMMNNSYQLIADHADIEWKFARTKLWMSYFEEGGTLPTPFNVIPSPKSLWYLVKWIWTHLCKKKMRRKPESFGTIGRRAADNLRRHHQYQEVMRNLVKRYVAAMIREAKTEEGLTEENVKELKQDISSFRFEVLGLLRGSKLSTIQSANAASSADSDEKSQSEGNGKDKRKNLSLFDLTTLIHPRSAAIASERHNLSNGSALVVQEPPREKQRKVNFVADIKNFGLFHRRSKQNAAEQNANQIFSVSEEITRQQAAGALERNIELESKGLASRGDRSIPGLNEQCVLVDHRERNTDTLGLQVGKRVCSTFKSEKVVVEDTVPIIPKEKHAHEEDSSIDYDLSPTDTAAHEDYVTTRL

[4] = biological target: T2, Bcl-2-like protein 10 (Homo sapiens, UniProt Q9HD36); experiment: displacers of TR3 peptide from Bcl-B, primary screen, selectivity assay for Bfl-1 inhibitor project, biochemical, fluorescence polarization, FITC-TR3 peptide (AID 748);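 further: fluorescence polarization from a fluorescein-labelled TR3 peptide binding purified Bcl-B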
T2 sequence (Q9HD36 whole entry): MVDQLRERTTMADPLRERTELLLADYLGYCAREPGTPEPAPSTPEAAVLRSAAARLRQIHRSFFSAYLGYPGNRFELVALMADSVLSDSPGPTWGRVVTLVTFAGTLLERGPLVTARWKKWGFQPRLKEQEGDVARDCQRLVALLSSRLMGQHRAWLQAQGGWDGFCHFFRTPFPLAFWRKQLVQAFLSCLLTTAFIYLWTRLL

[5] = biological target: T1, Short transient receptor potential channel 4; experiment: mouse TRPC4 channel inhibitors, dose response, cell-based, HEK293 TRPC4/mu-opioid, Fluo-4 calcium (AID 434942); type: functional;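 further: potency of inhibitors blocking the TRPC4 calcium response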
[6] = biological target: T3, Cytochrome P450 1A2 (Homo sapiens, UniProt P05177);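 further: PubChem cytochrome P450 panel assay, CYP1A2 panel member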
T3 sequence (P05177 whole entry): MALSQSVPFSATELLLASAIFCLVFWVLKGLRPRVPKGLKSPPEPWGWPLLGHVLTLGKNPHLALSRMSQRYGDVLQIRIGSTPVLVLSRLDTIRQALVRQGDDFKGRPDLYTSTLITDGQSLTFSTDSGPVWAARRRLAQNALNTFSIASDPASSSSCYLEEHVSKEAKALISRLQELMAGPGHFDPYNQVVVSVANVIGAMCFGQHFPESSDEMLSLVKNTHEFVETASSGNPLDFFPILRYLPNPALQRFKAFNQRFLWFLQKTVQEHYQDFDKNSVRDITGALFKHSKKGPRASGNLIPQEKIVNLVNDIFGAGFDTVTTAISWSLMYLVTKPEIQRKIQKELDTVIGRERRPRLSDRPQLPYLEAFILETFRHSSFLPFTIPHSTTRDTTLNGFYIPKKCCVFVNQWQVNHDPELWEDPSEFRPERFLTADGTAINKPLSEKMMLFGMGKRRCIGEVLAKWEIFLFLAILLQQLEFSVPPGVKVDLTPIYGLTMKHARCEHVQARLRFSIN

[7] = C. albicans growth with fluconazole, confirmation, fluorescence, retest (AID 2467); type: functional, cell-based
[8] = biological target: T4, Histone-lysine N-methyltransferase NSD2 (Homo sapiens, UniProt O96028); type: biochemical
T4 sequence (O96028 whole entry): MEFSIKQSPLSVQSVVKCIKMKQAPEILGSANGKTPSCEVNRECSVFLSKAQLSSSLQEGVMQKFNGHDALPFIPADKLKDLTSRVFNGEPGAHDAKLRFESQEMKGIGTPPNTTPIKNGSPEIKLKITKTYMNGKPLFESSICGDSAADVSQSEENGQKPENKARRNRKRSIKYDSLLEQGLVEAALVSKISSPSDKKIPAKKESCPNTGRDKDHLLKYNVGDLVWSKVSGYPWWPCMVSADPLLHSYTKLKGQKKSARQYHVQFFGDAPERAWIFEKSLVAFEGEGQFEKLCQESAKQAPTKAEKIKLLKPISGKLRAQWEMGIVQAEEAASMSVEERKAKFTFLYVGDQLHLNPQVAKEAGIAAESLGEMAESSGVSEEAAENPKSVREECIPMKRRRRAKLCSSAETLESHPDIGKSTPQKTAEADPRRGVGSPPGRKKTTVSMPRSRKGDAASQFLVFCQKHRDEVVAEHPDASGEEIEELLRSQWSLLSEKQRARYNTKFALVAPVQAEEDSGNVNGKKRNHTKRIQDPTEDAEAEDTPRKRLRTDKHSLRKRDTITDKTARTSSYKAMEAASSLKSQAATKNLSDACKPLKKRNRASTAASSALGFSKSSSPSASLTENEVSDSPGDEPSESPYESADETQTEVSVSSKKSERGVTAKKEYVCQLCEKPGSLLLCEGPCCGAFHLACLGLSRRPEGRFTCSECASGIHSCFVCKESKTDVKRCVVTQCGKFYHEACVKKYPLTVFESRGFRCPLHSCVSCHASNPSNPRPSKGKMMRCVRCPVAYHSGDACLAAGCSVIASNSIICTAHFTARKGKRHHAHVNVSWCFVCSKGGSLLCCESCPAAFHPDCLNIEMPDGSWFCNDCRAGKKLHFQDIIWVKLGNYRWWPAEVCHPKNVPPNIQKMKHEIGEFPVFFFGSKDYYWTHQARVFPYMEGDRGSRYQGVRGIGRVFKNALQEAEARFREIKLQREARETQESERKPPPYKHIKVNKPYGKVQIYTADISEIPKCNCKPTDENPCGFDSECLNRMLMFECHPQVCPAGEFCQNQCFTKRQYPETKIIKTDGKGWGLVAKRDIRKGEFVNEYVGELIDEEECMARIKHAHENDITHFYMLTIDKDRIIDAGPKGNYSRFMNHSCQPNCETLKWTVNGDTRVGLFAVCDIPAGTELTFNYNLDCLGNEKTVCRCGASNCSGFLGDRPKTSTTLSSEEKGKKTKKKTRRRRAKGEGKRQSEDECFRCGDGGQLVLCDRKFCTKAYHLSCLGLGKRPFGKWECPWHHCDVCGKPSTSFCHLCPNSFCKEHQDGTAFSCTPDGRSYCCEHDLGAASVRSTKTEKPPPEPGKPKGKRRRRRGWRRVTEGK

[9] = NIH-3T3 fibroblast cytotoxicity, dose response, cytotoxicity control, cell-based, fluorescence, Alamar Blue, secondary assay (AID 2327); type: functional;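 further: NIH-3T3 mouse fibroblasts cultured with fluconazole at 8 µg/mL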
[10] = biological target: Glucose-6-phosphate 1-dehydrogenase (Homo sapiens, UniProt P11413); experiment: human G6PD enzyme inhibitors, dose response, selectivity assay for P. falciparum G6PD inhibitor project, biochemical, fluorescence (AID 504792); type: functional
Chain of Glucose-6-phosphate 1-dehydrogenase (P11413 whole entry): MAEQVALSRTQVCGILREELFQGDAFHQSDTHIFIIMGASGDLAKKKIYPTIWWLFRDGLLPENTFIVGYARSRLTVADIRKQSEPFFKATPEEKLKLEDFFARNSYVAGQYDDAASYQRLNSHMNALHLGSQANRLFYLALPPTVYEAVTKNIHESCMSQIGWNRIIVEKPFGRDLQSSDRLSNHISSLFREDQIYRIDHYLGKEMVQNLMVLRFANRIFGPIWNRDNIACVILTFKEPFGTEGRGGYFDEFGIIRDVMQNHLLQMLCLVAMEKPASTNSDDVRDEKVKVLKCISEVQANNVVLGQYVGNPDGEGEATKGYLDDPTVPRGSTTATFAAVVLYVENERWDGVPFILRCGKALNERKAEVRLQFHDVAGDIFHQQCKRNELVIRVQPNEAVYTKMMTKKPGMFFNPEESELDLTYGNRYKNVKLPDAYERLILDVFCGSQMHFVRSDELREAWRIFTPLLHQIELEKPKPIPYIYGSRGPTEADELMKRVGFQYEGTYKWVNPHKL

[11] = cells; type: functional, cell-based
[12] = tested on: INS1; experiment: beta cell apoptosis inhibitors, cytokine rescue, dose response, luminescence, retest (AID 449756); type: functional, cell-based; conditions: Rattus norvegicus;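 further: cell death triggered by IL-1 beta plus TNF-alpha plus IFN-gamma mixture; protective hits raise ATP signal compared with cytokine alone wells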
[13] = cells; type: functional, cell-based; remark: listed apart in the source
[14] = biological target: T5, Aminopeptidase N (Plasmodium falciparum FcB1/Columbia, UniProt O96935); experiment: P. falciparum M1AAP inhibitors, biochemical, fluorogenic H-Leu-NHMec substrate, 1536-well (AID 1445); set-up: species or system Plasmodium falciparum 3D7, 3D7
T5 sequence (O96935 whole entry): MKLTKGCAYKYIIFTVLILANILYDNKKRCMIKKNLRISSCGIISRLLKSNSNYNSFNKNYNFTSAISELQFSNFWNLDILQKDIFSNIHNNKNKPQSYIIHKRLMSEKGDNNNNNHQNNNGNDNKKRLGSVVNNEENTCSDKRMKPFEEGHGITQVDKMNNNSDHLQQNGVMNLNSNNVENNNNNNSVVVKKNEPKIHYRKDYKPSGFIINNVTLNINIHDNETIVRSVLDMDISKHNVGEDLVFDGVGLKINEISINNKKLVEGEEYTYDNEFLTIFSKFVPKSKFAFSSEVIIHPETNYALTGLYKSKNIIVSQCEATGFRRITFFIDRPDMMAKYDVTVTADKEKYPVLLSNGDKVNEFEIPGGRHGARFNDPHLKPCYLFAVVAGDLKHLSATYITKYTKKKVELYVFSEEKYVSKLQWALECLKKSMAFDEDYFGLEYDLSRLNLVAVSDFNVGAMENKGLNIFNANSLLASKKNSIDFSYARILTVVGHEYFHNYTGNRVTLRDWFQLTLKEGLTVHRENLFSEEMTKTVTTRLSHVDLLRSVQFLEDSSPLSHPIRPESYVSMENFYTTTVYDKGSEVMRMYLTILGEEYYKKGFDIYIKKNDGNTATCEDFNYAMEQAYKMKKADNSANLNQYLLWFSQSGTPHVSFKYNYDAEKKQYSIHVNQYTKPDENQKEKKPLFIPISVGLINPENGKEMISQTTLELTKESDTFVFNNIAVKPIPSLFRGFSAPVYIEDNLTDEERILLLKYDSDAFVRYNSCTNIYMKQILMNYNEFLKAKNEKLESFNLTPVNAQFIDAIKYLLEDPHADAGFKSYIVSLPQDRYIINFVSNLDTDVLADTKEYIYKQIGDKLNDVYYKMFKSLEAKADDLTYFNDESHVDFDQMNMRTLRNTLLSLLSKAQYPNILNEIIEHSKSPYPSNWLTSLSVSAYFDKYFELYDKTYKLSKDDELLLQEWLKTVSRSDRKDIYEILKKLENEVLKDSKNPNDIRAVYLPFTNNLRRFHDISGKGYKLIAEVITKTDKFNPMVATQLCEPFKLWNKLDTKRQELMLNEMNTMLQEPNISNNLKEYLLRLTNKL

[15] = biological target: Cytochrome P450 3A4 (Homo sapiens, UniProt P08684);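 further: CYP3A4 tested as one member of a cytochrome P450 panel screen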
Chain of Cytochrome P450 3A4 (P08684 whole entry): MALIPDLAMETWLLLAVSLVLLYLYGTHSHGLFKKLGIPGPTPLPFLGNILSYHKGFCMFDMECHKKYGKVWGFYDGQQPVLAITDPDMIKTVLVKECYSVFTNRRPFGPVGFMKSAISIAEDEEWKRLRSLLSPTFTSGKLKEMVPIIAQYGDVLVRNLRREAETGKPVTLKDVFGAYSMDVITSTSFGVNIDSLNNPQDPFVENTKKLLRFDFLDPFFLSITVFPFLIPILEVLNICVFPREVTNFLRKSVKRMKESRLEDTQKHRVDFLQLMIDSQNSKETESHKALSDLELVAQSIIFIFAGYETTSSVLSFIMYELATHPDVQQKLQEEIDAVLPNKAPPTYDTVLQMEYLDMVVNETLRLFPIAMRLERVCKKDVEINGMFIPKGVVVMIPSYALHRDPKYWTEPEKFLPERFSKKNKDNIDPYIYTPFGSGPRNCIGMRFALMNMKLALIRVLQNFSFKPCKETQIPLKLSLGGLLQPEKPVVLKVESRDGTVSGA

Chain of Cytochrome P450 2C9 (P11712 whole entry): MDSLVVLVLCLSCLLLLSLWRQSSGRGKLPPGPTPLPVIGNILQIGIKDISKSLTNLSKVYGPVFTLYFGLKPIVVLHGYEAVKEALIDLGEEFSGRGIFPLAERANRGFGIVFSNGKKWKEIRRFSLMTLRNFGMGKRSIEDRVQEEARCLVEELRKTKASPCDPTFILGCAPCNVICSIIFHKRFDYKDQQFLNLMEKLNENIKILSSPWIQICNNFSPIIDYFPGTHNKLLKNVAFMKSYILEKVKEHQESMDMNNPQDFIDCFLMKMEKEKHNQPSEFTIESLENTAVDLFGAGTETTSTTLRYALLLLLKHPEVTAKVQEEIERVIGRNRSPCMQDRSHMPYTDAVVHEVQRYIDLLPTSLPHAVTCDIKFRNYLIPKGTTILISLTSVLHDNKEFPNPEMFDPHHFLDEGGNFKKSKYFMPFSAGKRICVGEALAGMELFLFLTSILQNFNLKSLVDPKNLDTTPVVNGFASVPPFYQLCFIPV

## Cn1c(=O)c2cc(S(=O)(=O)NCCC(=O)Nc3ccc(Cl)cc3)ccc2n(C)c1=O
[1]
  AC50: inconclusive

## C[C@H]1CC[C@H]2C(=O)N[C@H](Cc3ccccc3)C(=O)N2[C@@H]1c1ccccc1
[1]
  AC50: inconclusive
[2]
  AC50: 3.98 µM (inconclusive)

## Cc1cc(NC(=O)c2cnn3cccnc23)nn1CC(=O)Nc1cccnc1
[3]
  EC50: 4.22 µM (active)

## COc1ccc(S(=O)(=O)N2CCCC2C(=O)Nc2nnc(-c3cccnc3)s2)cc1 (stereo not given)
[4]
  IC50: > 100 µM (inactive)

## O=C(NCCCN1CCN(Cc2ccccc2)CC1)C1CCN(c2nnc(-n3cccc3)s2)CC1
[4]
  IC50: 62.8 µM (inactive)

## OCCC1CN(Cc2ccccc2-c2ccco2)CCN1Cc1ccccc1 (stereo not given)
[3]
  EC50: 5.31 µM (active)

## CCOC(=O)C1(CC2CC2)CCN(Cc2ccc3cccc(F)c3n2)CC1
[5]
  EC50: 0.841 µM (active)
[3]
  EC50: 2.66 µM (active)

## O=C(N/C(=C/c1ccco1)C(=O)N1CCCCCC1)c1cccs1
[1]
  AC50: inconclusive
[6]
  AC50: 17.8 µM (inconclusive)
[2]
  AC50: 3.98 µM (inconclusive)

## Cc1ccc(S(=O)(=O)NC2=NC(=O)/C(=C\c3cc(Br)cc(Br)c3O)S2)cc1
[7]
  EC50: > 38 µM (not active)
[8]
  AC50: 6.67 µM (active)
[3]
  EC50: 10.6 µM (active)
[9]
  EC50: 9.99 µM (active)

## O=C(CSc1nc2cc(Cl)ccc2s1)c1ccco1
[10]
  IC50: > 80 µM (inactive)

## O=C(O)CCc1ccc(-c2cccs2)n1CCC(=O)O
[4]
  IC50: 77 µM (inactive)

## Cc1ccc(C(=O)Nc2nnc(S(=O)(=O)N3CCC(C)CC3)s2)cc1
[10]
  IC50: > 80 µM (inactive)

## O=C(Nc1ccccc1)N1CC2(CCN(C(=O)c3cc(C(F)(F)F)cc(C(F)(F)F)c3)CC2)C1
[1]
  AC50: inconclusive

## Cc1cccc(OCCOCCN2CCNCC2)c1C
[3]
  EC50: 1.19 µM (active)

## FC(F)(F)c1cnc(Nc2ccc(N3CCOCC3)cc2)c(Cl)c1
[4]
  IC50: 76.3 µM (inactive)

## O=C(N/N=C/c1cc(Cl)ccc1O)c1ccccc1Br
[11]
  EC50: > 350 µM (not active)
[12]
  AC50: 2.29 µM (active)
[13]
  EC50: 14.7 µM (active)
[14]
  IC50: 30.8 µM (active)

## COc1cc(/C=N/NC(=O)[C@H](Cc2c[nH]c3ccccc23)NC(=O)OCC(C)C)cc([N+](=O)[O-])c1O
[14]
  IC50: 12.2 µM (active)

## O=C(Nc1ccccc1C(=O)N/N=C/c1ccco1)c1ccccc1Cl
[10]
  IC50: > 80 µM (inactive)

## Oc1ccc2oc3c(c2c1)CCCC3
[15]
  AC50: 22.4 µM (inconclusive)
[1]
  AC50: inconclusive
